# Measured values as given in patent US20150225369A1, “DDR2 INHIBITORS FOR THE TREATMENT OF OSTEOARTHRITIS” (Merck Patent GmbH, priority 2012, published 2015).
# pIC50: −log10 of the molar value.
# Molecular target: T1, His-tagged human recombinant DDR-2 kinase domain (His-TEV-DDR2 467-855 aa) (Homo sapiens, UniProt Q16832)
# T1 construct: His-TEV-DDR2 467-855 aa
# T1 sequence (Q16832 467-855): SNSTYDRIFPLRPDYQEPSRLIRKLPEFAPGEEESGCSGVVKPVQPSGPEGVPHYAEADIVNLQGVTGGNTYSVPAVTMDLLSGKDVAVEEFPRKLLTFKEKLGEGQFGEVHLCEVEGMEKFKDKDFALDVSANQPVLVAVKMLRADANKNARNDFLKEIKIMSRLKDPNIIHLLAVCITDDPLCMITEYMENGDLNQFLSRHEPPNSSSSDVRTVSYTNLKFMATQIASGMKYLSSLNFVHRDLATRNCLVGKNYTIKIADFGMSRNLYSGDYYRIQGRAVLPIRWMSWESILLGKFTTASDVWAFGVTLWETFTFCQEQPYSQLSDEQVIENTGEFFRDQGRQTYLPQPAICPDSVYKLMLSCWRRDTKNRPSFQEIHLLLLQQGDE
# Test: Autophosphorylation assay for biochemical activity testing of DDR2 (HTRF)
# Procedure: The autophosphorylation assay was run in two steps: the enzymatic reaction in which His-tagged DDR2 with ATP as co-substrate phosphorylates itself and the detection reaction where a time resolved FRET between XL665® labelled anti-6His antibody bound to the His-tag of the enzyme and cryptate labelled anti-phospho-Tyrosine-antibody (PT66) bound the phosphorylated Tyrosine residue of DDR2 was analysed. The autophosphorylation activity was detectable directly via the increase in HTRF signal.
# The autophosphorylation assay was performed as 1536 well or 384 well HTRF® (Cisbio, Codolet, France) assay format in Greiner low volume medium binding 384-well microtiter plates and was used for high throughput screen. […] The ratio of the emission signals was determined. The full value used was the inhibitor-free reaction.
# [1] = biochemical DDR2 autophosphorylation
# [2] = 4 nM DDR2 kinase domain, 150 μM ATP, 150 min at 22° C.
Compound,pIC50 [1],pIC50 [2]
"CNC(=O)c1cc(Oc2ccc(CNC(=O)Nc3cc(C(F)(F)F)ccc3OC3CCNCC3)cc2)ccn1 [compound 115, 4-(4-{3-[2-(Piperidin-4-yloxy)-5-trifluoromethyl-phenyl]-ureidomethyl}-phenoxy)-pyridine-2-carboxylic acid methylamide]",7.70,
O=C(NCc1ccc(Oc2ccncc2)cc1)Nc1cc(C(F)(F)F)cc(C(F)(F)F)c1 [compound 22],6.25,
"CNC(=O)c1cc(Oc2ccc(CNC(=O)Nc3cc(C)c(Cl)cc3OCCN3CCOCC3)c(C)c2)ccn1 [compound 133, 4-(4-{3-[4-Chloro-5-methyl-2-(2-morpholin-4-yl-ethoxy)-phenyl]-ureidomethyl}-3-methyl-phenoxy)-pyridine-2-carboxylic acid methylamide]",5.70,
"COc1ccc(C(F)(F)F)cc1NC(=O)NCc1ccc(Oc2ccncc2)cc1 [compound 62, 1-(2-Methoxy-5-trifluoromethyl-phenyl)-3-[4-(pyridin-4-yloxy)-benzyl]-urea]",8.70,
"O=C(NCc1ccc(Oc2ccncc2)cc1)Nc1ccc(Br)cc1Cl [compound 35, 1-(4-Bromo-2-chloro-phenyl)-3-[4-(pyridin-4-yloxy)-benzyl]-urea]",5.02,
"O=C(NCc1ccc(Oc2ccncc2)cc1)Nc1cccc(OC(F)(F)F)c1 [compound 65, 1-[4-(Pyridin-4-yloxy)-benzyl]-3-(3-trifluoromethoxy-phenyl)-urea]",7.46,
"CC(=O)Nc1cc(Oc2ccc(CNC(=O)Nc3cc(C)c(Cl)cc3OCCN(C)C)cc2C)ccn1 [compound 247, N-[4-(4-{3-[4-Chloro-2-(2-dimethylamino-ethoxy)-5-methyl-phenyl]-ureidomethyl}-2-methyl-phenoxy)-pyridin-2-yl]-acetamide]",8.22,
"CCN(CC)CCOc1cc(Cl)c(C)cc1NC(=O)NCc1ccc(Oc2ccnc(C(=O)NC)c2)c(C)c1 [compound 136, 4-(4-{3-[4-Chloro-2-(2-diethylamino-ethoxy)-5-methyl-phenyl]-ureidomethyl}-2-methyl-phenoxy)-pyridine-2-carboxylic acid methylamide]",6.41,
"CNC(=O)c1cc(Oc2ccc(CNC(=O)Nc3cc(C)c(Cl)cc3OCCN3CCCC3)cc2C)ccn1 [compound 137, 4-(4-{3-[4-Chloro-5-methyl-2-(2-pyrrolidin-1-yl-ethoxy)-phenyl]-ureidomethyl}-2-methyl-phenoxy)-pyridine-2-carboxylic acid methylamide]",6.85,
"Cc1cc(NC(=O)NCc2ccc(Oc3ccncn3)c(C)c2)c(OCCN(C)C)cc1Cl [compound 250, 1-[4-Chloro-2-(2-dimethylamino-ethoxy)-5-methyl-phenyl]-3-[3-methyl-4-(pyrimidin-4-yloxy)-benzyl]-urea]",5.92,
"O=C(NCc1ccc(Oc2ccncc2)cc1)Nc1ccc(Cl)cc1C(F)(F)F [compound 40, 1-(4-Chloro-2-trifluoromethyl-phenyl)-3-[4-(pyridin-4-yloxy)-benzyl]-urea]",5.00,
"CNC(=O)c1cc(Oc2ccc(CNC(=O)Nc3cc(C)c(Cl)cc3OCCCCN(C)C)cc2C)ccn1 [compound 165, 4-(4-{3-[4-Chloro-2-(4-dimethylamino-butoxy)-5-methyl-phenyl]-ureidomethyl}-2-methyl-phenoxy)-pyridine-2-carboxylic acid methylamide]",6.68,
Cc1cc(Oc2ccc(CNC(=O)Nc3cnc4ccccc4c3)cc2C)ccn1 [compound 32],,5.15
O=C(NCc1ccc(Oc2ccncc2)cc1)Nc1ccc(C(F)(F)F)cc1 [compound 21],5.70,
COc1nc2ccccc2cc1NC(=O)NCc1ccc(Oc2ccnc(C)c2)c(C)c1 [compound 33],,5.77
O=C(NCc1ccc(Oc2ccncc2)cc1)Nc1cccc(Cl)c1Cl [compound 13],≤ 4.00,
COc1ccc(NC(=O)NCc2ccc(Oc3ccncc3)cc2)cc1 [compound 17],4.89,

# Other lines, results leading:
pIC50 [1],pIC50 [2],Compound
7.08,,"CNC(=O)c1cc(Oc2ccc(CNC(=O)Nc3cc(C)ccc3OC3CCNCC3)cc2)ccn1 [compound 159, 4-(4-{3-[5-Methyl-2-(piperidin-4-yloxy)-phenyl]-ureidomethyl}-phenoxy)-pyridine-2-carboxylic acid methylamide]"
≤ 4.00,,"CNC(=O)c1cc(Oc2ccc(CNC(=O)Nc3ccncc3)cc2)ccn1 [compound 90, 4-{4-[(3-Pyridin-4-yl-ureido)-methyl]-phenoxy}-pyridine-2-carboxylic acid methylamide]"
7.49,,"CNC(=O)c1cc(Oc2ccc(CNC(=O)Nc3cc(C(F)(F)F)ccc3OCCNS(C)(=O)=O)cc2)ccn1 [compound 180, 4-(4-{3-[2-(2-Methanesulfonylamino-ethoxy)-5-trifluoromethyl-phenyl]-ureidomethyl}-phenoxy)-pyridine-2-carboxylic acid methylamide]"
6.77,,"CNC(=O)c1cc(Oc2ccc(CNC(=O)Nc3cc4ccccc4cn3)cc2)ccn1 [compound 96, 4-{4-[(3-Isoquinolin-3-yl-ureido)-methyl]-phenoxy}-pyridine-2-carboxylic acid methylamide]"
6.59,,"CNC(=O)c1cc(Oc2ccc(CNC(=O)Nc3cc(Cl)c(C)cc3OCCN3CCCC3)cc2)ccn1 [compound 173, 4-(4-{3-[5-Chloro-4-methyl-2-(2-pyrrolidin-1-yl-ethoxy)-phenyl]-ureidomethyl}-phenoxy)-pyridine-2-carboxylic acid methylamide]"
7.21,,"CNC(=O)c1cc(Oc2ccc(CNC(=O)Nc3cc(C(F)(F)F)ccc3OC)cc2)ccn1 [compound 63, 4-{4-[3-(2-Methoxy-5-trifluoromethyl-phenyl)-ureidomethyl]-phenoxy}-pyridine-2-carboxylic acid methylamide]"
,5.42,CNC(=O)c1cc(Oc2ccc(CNC(=O)Nc3ccccn3)cc2)ccn1 [compound 3]
6.90,,"CCN(CC)CCOc1cc(Cl)c(C(F)(F)F)cc1NC(=O)NCc1ccc(Oc2ccnc(C(=O)NC)c2)cc1 [compound 132, 4-(4-{3-[4-Chloro-2-(2-diethylamino-ethoxy)-5-trifluoromethyl-phenyl]-ureidomethyl}-phenoxy)-pyridine-2-carboxylic acid methylamide]"
,6.21,CNC(=O)c1cc(Oc2ccc(COC(=O)Nc3cc(C(F)(F)F)cnc3O)cc2)ccn1 [compound 5]
≤ 4.00,,"CNC(=O)c1cc(Oc2ccc(CNC(=O)Nc3cc(C(F)(F)F)ccc3OC(C)(C)C(N)=O)cc2)ccn1 [compound 199, 4-(4-{3-[2-(1 -Carbamoyl-1-methyl-ethoxy)-5-trifluoromethyl-phenyl]-ureidomethyl}-phenoxy)-pyridine-2-carboxylic acid methylamide]"
7.02,,"CNC(=O)c1cc(Oc2ccc(CNC(=O)Nc3cc(C(F)(F)F)c(Cl)cc3OCCN3CCOCC3)cc2)ccn1 [compound 131, 4-(4-{3-[4-Chloro-2-(2-morpholin-4-yl-ethoxy)-5-trifluoromethyl-phenyl]-ureidomethyl}-phenoxy)-pyridine-2-carboxylic acid methylamide]"
7.06,,COc1ccc(Cl)cc1NC(=O)NCc1ccc(Oc2ccncc2)cc1 [compound 32]
6.39,,"CNC(=O)c1cc(Oc2ccc(CNC(=O)Nc3ccc(Cl)cc3OC)cc2)ccn1 [compound 79, 4-{4-[3-(4-Chloro-2-methoxy-phenyl)-ureidomethyl]-phenoxy}-pyridine-2-carboxylic acid methylamide]"
6.92,,"CNC(=O)c1cc(Oc2ccc(CNC(=O)Nc3cc(C(F)(F)F)c(Cl)cc3OCCN)cc2)ccn1 [compound 140, 4-(4-{3-[2-(2-Amino-ethoxy)-4-chloro-5-trifluoromethyl-phenyl]-ureidomethyl}-phenoxy)-pyridine-2-carboxylic acid methylamide]"
5.68,,"Cc1ccc(NC(=O)NCc2ccc(Oc3ccncc3)cc2)cc1C [compound 59, 1-(3,4-Dimethyl-phenyl)-3-[4-(pyridin-4-yloxy)-benzyl]-urea]"
,6.24,CNC(=O)c1cc(Oc2ccc(CNC(=O)Nc3cc(C)ccn3)cc2)ccn1 [compound 14]
7.11,,"CNC(=O)c1cc(Oc2ccc(CNC(=O)Nc3cc(C(F)(F)F)ccc3OCCN(C)C)cc2)ccn1 [compound 77, 4-(4-{3-[2-(2-Dimethylamino-ethoxy)-5-trifluoromethyl-phenyl]-ureidomethyl}-phenoxy)-pyridine-2-carboxylic acid methylamide]"
7.01,,CNC(=O)c1cc(Oc2ccc(CNC(=O)Nc3cc(OC)ccc3OC)cc2)ccn1 [compound 20]
5.51,,"COc1cc(Cl)c(C)cc1NC(=O)NCc1ccc(Oc2ccnc(C(=O)NCCN)c2)cc1 [compound 123, 4-{4-[3-(4-Chloro-2-methoxy-5-methyl-phenyl)-ureidomethyl]-phenoxy}-pyridine-2-carboxylic acid (2-amino-ethyl)-amide]"
5.92,,"CNC(=O)c1cc(Oc2ccc(CNC(=O)Nc3ccccc3OCCCN(C)C)cc2)ccn1 [compound 86, 4-(4-{3-[2-(3-Dimethylamino-propoxy)-phenyl]-ureidomethyl}-phenoxy)-pyridine-2-carboxylic acid methylamide]"
